US20180078655A1, “IMMUNOCONJUGATES FOR SPECIFIC INDUCTION OF T CELL CYTOTOXICITY AGAINST A TARGET CELL” (priority 2015, published 2018)

Test system: A-375, PC-3, HCT-116 tumor cell lines
Test: LDH release assay and xCELLigence, FLU peptide immunoconjugate
Format: cell-based, human
Details: xCELLigence, 6, 10 and 18 hours

CTELKLSDY [free peptide]
tumor cell killing over the course of time: usually decreased in higher incubation times
